This note sets out measurements from US20200188394A1, “TREATMENT OF LIVER DISEASE” (UNIVERSITY OF NEWCASTLE UPON TYNE, priority 2016, published 2020).

Assay type in all cases: cell-based, rat
One experiment concerns Gck mRNA. As to the kind of experiment: Relative Gck mRNA expression in hepatocytes (real-time RT-PCR). As to conditions: for Gck mRNA relative expression: 5 or 10 mM DG with 5 mM glucose (FIG. 6D); for relative expression of Gck mRNA: 4 hours, listed as GKA. Here is the method:
(§1) Hepatocytes were isolated from male Wistar rats (body wt 200-300 g) (Envigo, Bicester, UK). Procedures conformed to Home Office Regulations. The hepatocytes were suspended in Minimum Essential Medium (MEM) 21430 (Life Technologies, GIBCO BRL, Grand Island, N.Y.) with 5% (v/v) calf serum (Life Technologies, GIBCO BRL, Grand Island, N.Y.) and seeded on gelatin-coated plates. After cell attachment (˜4 hours) the medium was replaced by serum-free medium containing 5 mM glucose, 10 nM dexamethasone, 1 nM insulin and experiments were started after ˜20 hours culture by challenge with media containing 5 mM glucose, 15 mM glucose or 25 mM glucose and other additions as indicated.
(§2) Incubations for mRNA analysis and fructose 2,6-bisphosphate were for 4 hrs in MEM with 5, 15, or 25 mM glucose with or without 10 nM insulin and with or without 2 mM fructose. In samples including GKA, 10 μM GKA RO 28-1675 was added.
(§3) Incubations with 2-deoxyglucose (DG) where carried out as described previously but with 5 or 10 mM DG with 5 mM glucose (5G) and with or without 2 μM S4048.
(§4) RNA was extracted using TRIzol (Invitrogen) and cDNA was synthesized from 1 μg of RNA with MMLV (Promega). Real-time RT-PCR was performed in a total volume of 10 μl containing 50 ng of reverse transcribed RNA and 5 ng of forward and reverse primers using a Sybr-Green protocol (Promega) in a Roche Capillary Light Cycler. Relative mRNA levels (vs control) were calculated by the delta cycle threshold method.
For orientation: Real-time PCR tracks product formation cycle by cycle.

For experiment [1], the system named is hepatocytes. As to the kind of experiment: Cell G6P / hexose 6-phosphate (H6P) determination in hepatocytes. The conditions noted are these: for H6P concentration / glucose-6-phosphate concentration: hepatocytes; for H6P concentration: 5 or 10 mM DG with 5 mM glucose (FIG. 6B); for glucose-6-phosphate concentration: 2 hours, 10 nM insulin, 5, 15 or 25 mM glucose, 10 μM GKA vs glucose alone (FIG. 2B). Here is the method:
as §1
Hepatocytes were incubated for 1 or 2 hours in MEM containing 10 nM insulin and 5, 15, or 25 mM glucose with or without 10μM GKA 3-cyclopentyl-2-(4-methanesulfonylphenyl)-N-thiazol-2-yl-propionamide (RO 28-1675) (Axon MedChem BV, Groningen) for determination of glucose phosphorylation (nmol/2 h per mg) and cell G6P (nmol/mg protein).
as §3
Medium containing the cultured hepatocytes was drained from cell culture plates and the plates were snap-frozen in liquid nitrogen and stored at −80° C. For H6P determination, cells were extracted in 2.5% sulphosalicylic acid for deproteinization (10,000g, 10 min) and the supernatants were then neutralized with KOH/KH^2PO4 (3 M/1 M) and metabolites assayed on the neutralized deproteinized extracts. For fructose 2,6-P2, cells were extracted in 0.15 M NaOH.
For G6P and H6P determination the assay procedure involved coupling of the dehydrogenation of G6P by glucose-6-phosphate dehydrogenase to the […] by the reduction of the molecule resazurin to resorufin by NADP measured by the […]. Standards of G6P (2 to 20 μM) were prepared in 2.5% sulphosalicylic acid and neutralized with KOH/KH2PO4 (3 M/1 M) as in samples for metabolite determination. Standards and samples (20 μl) were then assayed in a final reaction volume of 200 μI containing 50 mM triethanolamine (TEA, pH 7.6), 1.0 mM MgCl2, 100 μM NADP+, 10 μM resazurin, 0.1 U/ml G6PD, and 0.2 U/ml diaphorase. The mixtures were then incubated for 30 min at room temperature. Fluorescence at 590 nm was measured using excitation at 530 nm using a plate reader (M5E Molecular devices). Background fluorescence was corrected by subtracting the value of the no-G6P control from all sample readings and sample values were read off the linear standard curve determined from the G6P standards.
Metabolites are expressed as nmol/mg protein except for fructose 2,6-P2 which is expressed as pmol/mg of total cell protein determined by a Lowry assay.

In a further experiment the test system is G6pc mRNA. As to the kind of experiment: Relative G6pc mRNA expression in hepatocytes (real-time RT-PCR). The conditions noted are these: for G6pc mRNA relative expression: 5 or 10 mM DG with 5 mM glucose (FIG. 6C); for relative expression of G6pc mRNA: 4 hours. Here is the method:
as §1, §2, §3, §4

Experiment [2] deals with hepatocytes. As to the kind of experiment: Fructose 2,6-bisphosphate determination in hepatocytes. As to conditions: 4 hours, GKA with 15 mM glucose vs 5 mM and 15 mM glucose alone, without or with 10 nM insulin (FIG. 3A), listed as GKA. Here is the method: as §1, §2
Experiment [3] deals with hepatocytes. As to the kind of experiment: Glucose phosphorylation in hepatocytes ([2-3H]glucose to 3H2O). As to conditions: 2 hours, 10 nM insulin, 5, 15 or 25 mM glucose, 10 μM GKA vs glucose alone (FIG. 2A). Here is the method:
as §1

A further experiment deals with Pklr mRNA. As to the kind of experiment: Relative Pklr mRNA expression in hepatocytes (real-time RT-PCR). As to conditions: 4 hours, listed as GKA. Here is the method: as §1, §2, §3
RNA was extracted using TRIzol (Invitrogen) and cDNA was synthesized from 1 μg of RNA with MMLV (Promega). […] Relative mRNA levels (vs control) were calculated by the delta cycle threshold method.

Each structure is given as a SMILES string. “Also recorded” adds a separate entry of the source.

For the compound `O=CC[C@@H](O)[C@H](O)[C@H](O)CO` [DG, 2-deoxyglucose], the figures for the “Gck mRNA relative expression” value with Gck mRNA and in the experiment with Gck mRNA (listed as 2DG) were “repression of Gck mRNA” and “decrease in Gck mRNA expression”, respectively. Moreover, the H6P concentration result in the experiment with hepatocytes [1] is “causes elevation in the cell hexose 6-phosphate (H6P) content”; in the experiment with hepatocytes [1] (listed as 2DG), “H6P concentration increases with increasing 2DG”. Moreover, the figures for the “G6pc mRNA relative expression” value with G6pc mRNA and in the experiment on G6pc mRNA (listed as 2DG) were “does not cause induction of expression of G6pc mRNA” and “does not affect G6pc mRNA relative expression”, respectively.
As to `CS(=O)(=O)c1ccc(C(CC2CCCC2)C(=O)Nc2nccs2)cc1` (stereo not drawn) [RO 28-1675, 3-cyclopentyl-2-(4-methanesulfonylphenyl)-N-thiazol-2-yl-propionamide], in the experiment with hepatocytes [2], the “fructose 2,6-bisphosphate concentration” value was “increase in F-2,6-P2; also recorded: increases F-2,6-P2 more than 5 mM glucose and 15 mM glucose”. In addition, the “relative expression of Gck mRNA” value in the experiment with Gck mRNA (10 nM insulin, 5, 15 or 25 mM glucose, -/+ 10 μM GKA (FIG. 4A)) was “represses the relative expression of Gck; also recorded: able to reduce Gck expression; also recorded: reduced the relative expression of Gck mRNA at all glucose concentrations”; with Gck mRNA (GKA with 15 mM glucose vs 5 mM and 15 mM glucose alone (FIG. 3D)) it was “decrease in relative expression of Gck mRNA; also recorded: decreased relative expression of Gck mRNA”. The values for the glucose phosphorylation entry with hepatocytes [3] and in the experiment with hepatocytes [3] (listed as GKA) were “increased phosphorylation more than glucose alone” and “increases the rate of phosphorylation of glucose”, respectively. For the same compound, the “fractional increase in G6P compared with fractional increase in metabolic flux” value in the experiment on hepatocytes [1] (basal (5 mM) and moderate (15 mM) glucose, 10 μM GKA) is recorded as “greater”. For the same compound, the values for the glucose-6-phosphate concentration entry in the experiment on hepatocytes [1] and in the experiment with hepatocytes [1] (listed as GKA) were “increased the concentration of G6P more than glucose alone” and “increases the cell concentration of G6P at all glucose concentrations”, respectively. Moreover, the “relative expression of Pklr mRNA” value in the experiment on Pklr mRNA (10 nM insulin, 5, 15 or 25 mM glucose, -/+ 10 μM GKA (FIG. 4B)) was “induces the expression of both G6pc and Pklr mRNA; also recorded: increased relative expression of Pklr mRNA”; in the experiment on Pklr mRNA (GKA with 15 mM glucose vs 5 mM and 15 mM glucose alone (FIG. 3C)), “increase in relative expression of both Pklr and G6pc mRNA; also recorded: increased relative expression of Pklr mRNA”. Moreover, the “relative expression of G6pc mRNA” value with G6pc mRNA (10 nM insulin, 5, 15 or 25 mM glucose, -/+ 10 μM GKA (FIG. 4C), listed as GKA) is “induces the expression of both G6pc and Pklr mRNA; also recorded: increased relative expression of Pklr mRNA and G6pc mRNA at all glucose concentrations”; with G6pc mRNA (GKA with 15 mM glucose vs 5 mM and 15 mM glucose alone (FIG. 3B)), “increase in relative expression of both Pklr and G6pc mRNA”.
